Assay results as given in patent US8962523B2, “Herbicide/safener combination” (Bayer Cropscience AG, priority 2008, dated 2015).

Legend:
Format in all cases: in vivo
Wheat (Triso) [1] = test: Pre-emergence herbicidal effect and safener effect, wheat; conditions: herbicide 100 g a.i./ha, no safener, visual scoring vs untreated controls
Description: (§1) Seeds or rhizome pieces of mono- and dicotyledonous weed plants and crop plants were planted in peat pots in sandy loam and covered with earth. The herbicide/safener active ingredient combinations according to the invention, formulated as water-soluble powders or suspensions, and, in parallel experiments, the correspondingly formulated individual active ingredients were then applied to the surface of the covering earth at an application rate of 600 to 800 l of water/ha (converted) in a variety of dosages.
(§2) After the treatment, the pots were placed in the greenhouse and kept under good growth conditions for the weeds and the crop plants. Visual scoring of the plant damage or emergence damage was carried out after the test plants had emerged after a test period of 2 to 4 weeks, in comparison with untreated controls.

Wheat (Triso) [2] = test: Post-emergence herbicidal effect and safener effect, wheat; conditions: herbicide 50 g a.i./ha, no safener
Description: (§3) Seeds or rhizome pieces of mono- and dicotyledonous harmful plants and of crop plants are planted in peat pots in sandy loam, covered with earth and grown in a greenhouse under good growth conditions. Alternatively to this, harmful plants occurring in the paddy rice cultivation are cultivated in pots in which water comes to 2 cm above the soil surface. 10 to 20 days after sowing, the test plants are treated in the one to three-leaf stage. The herbicide/safener active ingredient combinations according to the invention, formulated as water-soluble powders or suspensions, and, in parallel experiments, the correspondingly formulated individual active ingredients are sprayed onto the green plant parts in various dosages using an application rate of 300 l of water/ha (converted) and, after the test plants have remained in the greenhouse under optimum growth conditions for 2-3 weeks, the effect of the preparations is scored visually in comparison with untreated controls. In the case of rice or in the case of harmful plants which occur in the rice cultivation, the active ingredients are also placed directly into the irrigation water (application analogous to the so-called granules application) or sprayed onto plants and into the irrigation water.

Barley (Adonis) = test: Post-emergence herbicidal effect and safener effect, barley; conditions: no safener
Description: as §3

Corn (Aventura) [3] = test: Pre-emergence herbicidal effect and safener effect, corn; conditions: no safener
Description: as §1, §2

Corn (Aventura) [4] = test: Post-emergence herbicidal effect and safener effect, corn; conditions: herbicide 100 g a.i./ha, no safener
Description: as §3

COC(=O)c1nc(-c2ccc(Cl)nc2)cc(N)c1Cl [I-128, Methyl 4-amino-3-chloro-6-(6-chloro-3-pyridinyl)pyridine-2-carboxylate]
% Effect (without safener) (Wheat (Triso) [1]): 50%
% Effect (without safener) (Wheat (Triso) [2]): 40%
% Effect (without safener) (Barley (Adonis); herbicide 25 g a.i./ha): 30%
% Effect (without safener) (Barley (Adonis); herbicide 50 g a.i./ha): 20%
% Effect (without safener) (Corn (Aventura) [3]; herbicide 25 g a.i./ha): 50%
% Effect (without safener) (Corn (Aventura) [3]; herbicide 50 g a.i./ha): 65%
% Effect (without safener) (Corn (Aventura) [4]): 40%
